Test results from US11970452B2, “Modulators of mas-related G-protein receptor X2 and related products and methods” (Escient Pharmaceuticals, Inc., priority 2020, dated 2024).

Assays:
Human LAD2 cells = test: Mast Cell Beta-Hexosaminidase Release Assay (versus 500 nM Cortistatin-14); assay type: cell-based; details: 500 nM Cortistatin-14 agonist, read-out: MRGPR2 Antagonist Activity
Description: Human LAD2 cells (NIH) were maintained in an incubator at 37° C. with 5% CO2 and cultured in StemPro-34 serum-free media (Gibco 10639011) supplemented with 2 mM L-glutamine, 100 U/ml penicillin, […] streptomycin and 100 ng/ml SCF (Invitrogen PEP0860), at a concentration of 2-5×10^5 cells/mL, with hemidepletion every 1-2 weeks.
Cells were transferred to SCF-Free medium at 2.5×10^5 cells/mL and kept in an incubator overnight. On the day of the assay, cells were washed twice in Assay Buffer (final concentrations 10 mM HEPES, 137 mM NaCl, 5.6 mM D-glucose, 2.7 mM KCl, 1 mM MgCl, 1.8 mM CaCl2, 0.4 mM Na2HPO4.7H2O, 0.04% BSA, pH=7.4) and plated in a 96-well v-bottom plate at 20,000 cells per well in 80 μL Assay Buffer. Antagonist compounds solubilized at 10 mM in DMSO were diluted in Assay Buffer to 10× final desired concentrations as a 10-point curve (10 μM final top concentration with 1:3 serial dilutions) and 10 μL added per well. Plates were then incubated for 1 hour at 37° C. Agonists were diluted in Assay Buffer to 10× desired concentrations and 10 μL of the appropriate agonist added to each well. The final concentration of Cortistatin-14 (Tocris 3374) used in antagonist assays was 500 nM. Final concentrations of DMSO were kept consistent across the plate. Plates were then incubated in a warm air oven for 30 minutes at 37° C., followed by centrifugation at 4° C. for 5 minutes at 450×g. 50 μL supernatant from each well was then transferred to a 96-well flat bottom plate containing 100 μL substrate solution per well (3.5 mg/mL p-Nitrophenyl-N-acetyl-β-D-glucosaminide (Sigma 487052) in Citrate Buffer containing a final concentration of 40 mM Citric Acid, 20 mM Na2HPO4.7H2O, pH=4.5). To the cell pellets left in the remaining assay buffer, 150 μL 0.1% Triton-X-100 was then added to each well, resuspended by pipetting up and down, and 50 μL cell lysates transferred to a second 96-well flat bottom plate containing 100 μL substrate solution per well. Plates containing transferred supernatant and cell lysates were then incubated in a warm air oven for 90 minutes at 37° C. After incubation, 50 μL of 400 mM Glycine buffer (pH 10.7) was added into each well and the plate was read on a Molecular Devices SpectraMax iD5 plate reader (absorbance at 405 nm with reference filter at 620 nm). After background subtraction, the percentage degranulation (percent beta-hexosaminidase release) was calculated as 100×(supernatant values)/(supernatant+lysate values), followed by analysis using GraphPad Prism software to calculate an IC50 value for each compound.
(§1) The activity ranges are denoted as follows: “+++++” denotes antagonist activity <100 nM; “++++” denotes antagonist activity between 100 and 500 nM; “+++” denotes activity between 501 and 1000 nM; “++” denotes activity between 1001 and 2500 nM; and “+” denotes activity >2500 nM

human MRGPRX2 = target: T1, human MRGPRX2 (Homo sapiens, UniProt Q96LB1); test: MRGPRX2 activity: IP-One HTRF antagonist assay versus 0.3 uM Cortistatin 14; assay type: cell-based; details: CHO cells expressing human MRGPRX2; IP-1 HTRF; versus 0.3 uM Cortistatin 14 agonist; read-out: MRGPR2 Antagonist Activity
T1 construct: expressed in transfected cells
T1 sequence (Q96LB1 1-330): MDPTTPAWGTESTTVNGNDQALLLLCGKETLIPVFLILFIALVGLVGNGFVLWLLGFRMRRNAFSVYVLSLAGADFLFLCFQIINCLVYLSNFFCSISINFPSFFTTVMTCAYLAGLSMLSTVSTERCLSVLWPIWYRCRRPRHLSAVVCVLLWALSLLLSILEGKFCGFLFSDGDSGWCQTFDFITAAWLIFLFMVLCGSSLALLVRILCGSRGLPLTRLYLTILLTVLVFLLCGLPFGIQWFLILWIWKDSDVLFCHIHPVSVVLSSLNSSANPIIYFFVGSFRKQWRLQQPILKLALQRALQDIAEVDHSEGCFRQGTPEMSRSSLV
Description: CHO cells stably transfected to express human MRGPRX2 were maintained in an incubator at 37° C. with 5% CO2 and grown in F12 (HAM) media with 10% fetal bovine serum (FBS), 1% Glutamax, 1% penicillin/streptomycin, 800 μg/mL Geneticin (G418), and 300 μg/mL Hygromycin B.
Cells were plated in a […] assay plate at 20,000 cells per well in 12 μL of Opti-MEM and kept in an incubator overnight. On the day of the assay, compounds solubilized at 10 mM in DMSO were added as a 10-point curve (30 uM final top concentration with 1:3 serial dilutions) using a Tecan D300E digital dispenser. Agonists were diluted in assay buffer (final concentrations of 5.7 mM Tris-HCl, 43 mM NaCl, 50 mM LiCl, pH=8) and 2 μL of the agonist Cortistatin 14 (CPC Scientific, catalog CORT-002) are added to each well. Final concentrations of agonists were 0.3 μM Cortistatin. Final concentrations of DMSO were kept consistent across the plate. Plates were incubated in the dark for 1 h at 37° C. and then for 1 h at room temperature. IP-1 standards and HTRF detection reagents were added according to the IP-One-Gq Kit purchased from Cisbio (part number 62IPAPEJ) and incubated in the dark for 1 h at room temperature. The plate was read on a Molecular Devices SpectraMax iD5 plate reader. The HTRF ratio was calculated from the raw data and graphed using GraphPad Prism to calculate an IC50 value for each compound.
as §1

IC50 (Human LAD2 cells) [nM]	IC50 (human MRGPRX2) [nM]	SMILES
100 to 500	< 100	CC(=O)Nc1cccc(C(=O)N[C@H]2CC[C@@H](Nc3cc(C(F)(F)F)nc4ccc(Cl)cc34)CC2)c1 [4-7]
100 to 500	100 to 500	CN(C)c1ccc(C(=O)N[C@H]2CC[C@@H](Nc3cc(C(F)(F)F)nc4ccccc34)CC2)cc1 [3-25]
< 100	–	O=C(N[C@H]1CC[C@@H](Nc2cc(C(F)(F)F)nc3ccc(Cl)cc23)CC1)c1ccnc2[nH]ccc12 [4-139]
< 100	–	CNc1ccc(C(=O)N[C@H]2CC[C@@H](Nc3cc(C(F)(F)F)nc4ccc(Cl)cc34)CC2)cc1 [4-9]
100 to 500	–	O=C(N[C@H]1CC[C@@H](Nc2cc(C(F)(F)F)nc3ccccc23)CC1)c1ccc(Cl)cc1 [3-10]
100 to 500	–	O=C(N[C@H]1CC[C@@H](Nc2cc(C(F)(F)F)nc3ccc(F)cc23)CC1)c1ccc(F)cc1 [1-4, 4-fluoro-N-[(1s,4s)-4-{[6-fluoro-2-(trifluoromethyl)quinolin-4-yl]amino}cyclohexyl]benzamide]
501 to 1000	100 to 500	O=C(N[C@H]1CC[C@@H](Nc2cc(C(F)(F)F)nc3ccccc23)CC1)c1ccccc1 [3-30]
